Measured values from ChEMBL document CHEMBL3286201, “Antileishmanial activity of a series of N²,N⁴-disubstituted quinazoline-2,4-diamines” (J Med Chem, 2014).

Columns and labels:
[1] = Cmax in Swiss Webster mouse plasma at 100 umol/kg, ip; type: ADME, cell-free; design: dose 100 umol/kg, route intraperitoneal
[2] = system: Liver; assay: Cmax in Swiss Webster mouse liver at 100 umol/kg, ip; type: ADME, tissue-based; design: dose 100 umol/kg, route intraperitoneal; details: in vivo
[3] = system: Spleen; assay: Cmax in Swiss Webster mouse spleen at 100 umol/kg, ip; type: ADME, tissue-based; design: dose 100 umol/kg, route intraperitoneal; details: in vivo
[4] = AUC (last) in Swiss Webster mouse plasma at 100 umol/kg, po; type: ADME, cell-free; design: dose 100 umol/kg, route oral, time 0 - last
[5] = system: Liver; assay: AUC (last) in Swiss Webster mouse liver at 100 umol/kg, po; type: ADME, tissue-based; design: dose 100 umol/kg, time 0 - last, route oral; details: in vivo
[6] = system: Spleen; assay: AUC (last) in Swiss Webster mouse spleen at 100 umol/kg, po; type: ADME, tissue-based; design: dose 100 umol/kg, time 0 - last, route oral; details: in vivo
[7] = AUC (last) in Swiss Webster mouse plasma at 100 umol/kg, ip; type: ADME, cell-free; design: dose 100 umol/kg, route intraperitoneal, time 0 - last
[8] = system: Liver; assay: AUC (last) in Swiss Webster mouse liver at 100 umol/kg, ip; type: ADME, tissue-based; design: dose 100 umol/kg, time 0 - last, route intraperitoneal; details: in vivo
[9] = system: Spleen; assay: AUC (last) in Swiss Webster mouse spleen at 100 umol/kg, ip; type: ADME, tissue-based; design: dose 100 umol/kg, route intraperitoneal, time 0 - last; details: in vivo
[10] = Elimination half life in Swiss Webster mouse plasma at 100 umol/kg, ip; type: ADME, cell-free; details: read-out: beta t1/2 (converted)
[11] = system: Liver; assay: Half life in mouse liver microsomes at 1 uM after 60 mins by HPLC-MS/MS analysis; type: ADME; details: 1 h
[12] = Elimination half life in Swiss Webster mouse plasma at 100 umol/kg, po; type: ADME, cell-free
[13] = system: Leishmania donovani; assay: Antileishmanial activity against intracellular amastigote stage of Leishmania donovani MHOM/ET/67/L82 infected in mouse J774A1 cells by colorimetric assay; type: functional, organism-based; details: MHOM/ET/67/L82, J774.A1
[14] = system: Leishmania amazonensis; assay: Antileishmanial activity against intracellular amastigote stage of Leishmania amazonensis LV78 infected in mouse J774A1 cells by colorimetric assay; type: functional, organism-based; details: LV78, J774.A1
[15] = Cytotoxicity against mouse J774A1 cells after 72 hrs by MTT assay; type: cell-based; details: J774.A1, 72 h
[16] = system: Leishmania donovani; assay: Antileishmanial activity against antimony-resistant clinical isolate Leishmania donovani BPK164/1 infected in mouse J774A1 cells by colorimetric assay; type: functional, organism-based; details: BPK164/1, J774.A1
[17] = Aqueous solubility of the compound at pH 7.4; type: physicochemical; details: buffer
[18] = Aqueous solubility of the compound at pH 2; type: physicochemical; details: buffer
[19] = Distribution coefficient, log D of the compound at pH 7.4; type: physicochemical; details: octanol/water
[20] = Distribution coefficient, log D of the compound at pH 3; type: physicochemical; details: octanol/water
[21] = system: Mus musculus; assay: Toxicity in BALB/c mouse assessed as hypoactivity at 30 mg/kg, ip for 5 consecutive doses; type: organism-based; design: dose 30 mg/kg, route intraperitoneal; details: in vivo
[22] = Cmax in Swiss Webster mouse plasma at 100 umol/kg, po; type: ADME, cell-free; design: dose 100 umol/kg, route oral
[23] = system: Liver; assay: Cmax in Swiss Webster mouse liver at 100 umol/kg, po; type: ADME, tissue-based; design: dose 100 umol/kg, route oral; details: in vivo
[24] = system: Spleen; assay: Cmax in Swiss Webster mouse spleen at 100 umol/kg, po; type: ADME, tissue-based; design: dose 100 umol/kg, route oral; details: in vivo
[25] = pampa, pH 7.4
Description: Passive transcellular permeability of the compound at pH 7.4 by PAMPA

[26] = pampa, pH 4
Description: Passive transcellular permeability of the compound at pH 4 by PAMPA

[27] = system: Leishmania donovani; assay: Antileishmanial activity against clinical isolate Leishmania donovani BPK206/0 infected in mouse J774A1 cells by colorimetric assay; details: BPK206/0, J774.A1
[28] = system: Mus musculus; assay: Toxicity in BALB/c mouse assessed as slowed breathing at 30 mg/kg, ip for 5 consecutive doses; type: organism-based; design: dose 30 mg/kg, route intraperitoneal; details: in vivo

## Cc1ccc2c(NCc3ccco3)nc(NC(C)C)nc2c1
[1]
  Cmax: 2.67 µM
[2]
  Cmax: 48 µM
[3]
  Cmax: 45.8 µM
[4]
  AUC(0-t): 2.5 µM·h
[5]
  AUClast: 29 µM·h
[6]
  AUClast: 7.4 µM·h
[7]
  AUC(0-t): 4.6 µM·h
[8]
  AUClast: 42 µM·h
[9]
  AUClast: 71 µM·h
[10]
  half-life: 5.4 h
[11]
  t1/2: 0.157 h
[12]
  half-life: 20 h
[13]
  EC50: 830 nM
[14]
  EC50: 4100 nM
[15]
  EC50: > 33000 nM
[16]
  EC50: 3800 nM
[17]
  solubility: ≤ 20 µM
[18]
  solubility: ≥ 30 µM
[19]
  logD: 3.61
[20]
  logD: 1.58
[21]
  Activity: Toxic
[22]
  Cmax: 0.25 µM
[23]
  Cmax: 5.2 µM
[24]
  Cmax: 0.9 µM
[25]
  permeability: 798 ×10⁻⁶ cm/s
[26]
  permeability: 67.2 ×10⁻⁶ cm/s
[27]
  EC50: 4200 nM

## CCCCNc1nc(NCc2ccccc2)nc2ccccc12
[1]
  Cmax: 5.21 µM
[2]
  Cmax: 148 µM
[3]
  Cmax: 163 µM
[4]
  AUC(0-t): 7.8 µM·h
[5]
  AUClast: 110 µM·h
[6]
  AUClast: 68 µM·h
[7]
  AUC(0-t): 11 µM·h
[8]
  AUClast: 500 µM·h
[9]
  AUClast: 620 µM·h
[10]
  half-life: 20 h
[11]
  t1/2: 0.45 h
[13]
  EC50: 340 nM
[14]
  EC50: 1400 nM
[15]
  EC50: 4900 nM
[16]
  EC50: 1400 nM
[17]
  solubility: ≤ 10 µM
[18]
  solubility: ≥ 30 µM
[19]
  logD: 3.84
[20]
  logD: 2.86
[28]
  Activity: Toxic
[22]
  Cmax: 0.44 µM
[23]
  Cmax: 15.8 µM
[24]
  Cmax: 7 µM
[25]
  permeability: 1020 ×10⁻⁶ cm/s
[26]
  permeability: 341 ×10⁻⁶ cm/s
[27]
  EC50: 2000 nM
